Measurements reported in paper PMC12329412, “Study of the mass balance, biotransformation, and safety of [^14C]IBI351 in healthy Chinese subjects” (Journal of Biomedical Research, 2024).

What was measured:
[1] = Ratio of total radioactivity in whole blood to plasma; type: in vivo, human; settings: Mean±SD, n=6
Method: The endpoint of blood analysis was a plasma radioactivity concentration less than 1/8 of the baseline plasma value. Venous blood samples were collected from the six subjects (01101–01106) at the following time points (in hours): −1 (pre-dosing), 0.5, 1, 2, 4, 8, 12, 24, and at 24-h intervals (post-dosing). Whole blood aliquots were collected for radioactivity measurement, and blood samples were centrifuged (1500 [± 10] g, 4 ℃, 10 min) for metabolite identification. All samples were stored at −10–−30 ℃ until analysis.
Blood, plasma, urine, and fecal samples were analyzed for TRA using the Tri-Carb model 3110 TR liquid scintillation counter (PerkinElmer, Waltham, MA, USA). Blood samples were divided into two parallel portions (0.5 g) and completely burned by OX-501 oxidizer (R.J. Harvey, Tappan, NY, USA). Finally, the samples were analyzed by liquid scintillation counting. Plasma (0.5 g) and urine (1 g) samples were directly analyzed by liquid scintillation counting. Fecal samples were first homogenized with isopropanol/water (50/50, v/v). The excretion of radioactivity in the urine and feces, referring to the cumulative recovery of total radioactive material in each time period, was defined as the sum of the percentage of TRA in the urine and feces relative to the administered dose. The TRA in each sample during a time period and the percentage of TRA related to the administered dose (% of dose) were calculated using the following formula: % of dosage = (TRA detected in the sample/radioactive dosage) × 100%.
The radioactivity in the whole blood and plasma is represented by the TRA ratio between the whole blood and plasma.

[2] = Radioactive metabolite profiling in pooled plasma, urine and feces; type: in vivo, human
Method: Moreover, four plasma samples at 1 h, 4 h, 48 h, and 96 h were obtained by mixing them in equal volumes. Urine samples were pooled across individuals at an equal volume to obtain one pooled sample within each time period of 0–24 h, 24–48 h, and 48–96 h. Fecal samples (0–192 h) were pooled at the same weight percentages across collection intervals for each subject. Moreover, fecal samples were pooled across individuals at an equal weight to obtain one pooled sample within each time period of 0–72 h, 72–120 h, and 120–192 h. Plasma, urine, and fecal homogenates were extracted and concentrated using organic solvents, and then the redissolved solutions were used for metabolite profile analysis. The plasma, urine, and fecal extracts were separated on HPLC columns, and the HPLC flow fractions were collected in Deepwell LumaPlateTM-96 plates at 15 s/fraction using an automatic fraction collector. The radioactivity of each fraction was quantified using a microplate detector with ARC® Convert and Evaluation software (3.0.2.379) and transformed to obtain the radioactive metabolite spectra. The radioactive metabolite spectra of each sample were integrated to acquire the peak area of each radioactive metabolite peak, the proportion of each spectral peak to the total radioactive intensity of the sample, and the proportion of the radioactivity of the major metabolites to the TRA in the corresponding blood, urine, and fecal samples. Therefore, the ratio of metabolites' concentrations to the total drug exposure (AUC) in the plasma and the ratio of each metabolite's level to the dose administered in the urine and feces were calculated. Liquid chromatography with low-energy radionuclide detection and mass spectrometry was used to identify the main metabolites in human plasma, urine, and fecal samples and to identify the possible biotransformation pathways of IBI351 in these samples.

albumin = target: T1, albumin (Homo sapiens, UniProt P02768); experiment: Covalent binding analysis of IBI351 in the plasma; type: in vitro ADME
T1 construct: from tissue; host or cells: plasma of healthy human male subjects
T1 sequence (P02768 25-609): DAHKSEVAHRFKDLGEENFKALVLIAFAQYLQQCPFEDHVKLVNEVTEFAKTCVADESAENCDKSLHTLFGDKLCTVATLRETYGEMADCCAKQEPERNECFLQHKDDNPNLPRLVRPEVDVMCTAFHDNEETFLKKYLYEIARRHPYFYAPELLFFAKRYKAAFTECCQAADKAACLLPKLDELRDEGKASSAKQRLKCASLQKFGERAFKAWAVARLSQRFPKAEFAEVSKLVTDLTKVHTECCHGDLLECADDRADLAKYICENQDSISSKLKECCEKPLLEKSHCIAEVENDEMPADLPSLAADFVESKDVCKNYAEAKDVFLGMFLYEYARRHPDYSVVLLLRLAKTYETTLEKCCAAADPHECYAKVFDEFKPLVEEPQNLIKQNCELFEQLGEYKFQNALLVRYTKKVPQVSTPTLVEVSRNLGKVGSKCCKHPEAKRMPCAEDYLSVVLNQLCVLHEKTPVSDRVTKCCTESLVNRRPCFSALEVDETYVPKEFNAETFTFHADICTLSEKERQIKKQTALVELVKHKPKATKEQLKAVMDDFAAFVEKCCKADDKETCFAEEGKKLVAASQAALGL

SMILES: C=CC(=O)N1CCN2c3c(c(=O)n(-c4c(C)ccnc4C(C)C)c4nc(-c5c(O)cccc5F)c(Cl)cc34)N(C)C(=O)C2C1 (stereo not drawn) [IBI351]
- Ratio of whole blood to total plasma radioactivity ([1]; 0.50 h post-dose): 0.655±0.0841
- Ratio of whole blood to total plasma radioactivity ([1]; 1.00 h post-dose): 0.716±0.0588
- Ratio of whole blood to total plasma radioactivity ([1]; 4.00 h post-dose): 0.606±0.0323
- Ratio of whole blood to total plasma radioactivity ([1]; 12.0 h post-dose): 0.571±0.0884
- Ratio of whole blood to total plasma radioactivity ([1]; 24.0 h post-dose): 0.626±0.0402
- Ratio of whole blood to total plasma radioactivity ([1]; 48.0 h post-dose): 0.670±0.0320
- Feces (0–192 h) % of dose ([2]; pooled feces 0–192 h): 9.71 % of dose
- Plasma (0–144 h) % of AUC (share of total plasma radioactivity exposure) ([2]; pooled plasma 0–144 h): 4.54 % of AUC
- Plasma (0–144 h) Metabolite/parent drug (%) ([2]; pooled plasma 0–144 h, relative to the parent drug): 100.00%
- Urine (0–96 h) % of dose ([2]; pooled urine 0–96 h): 1.16 % of dose
- Feces+urine % of dose ([2]; sum of feces 0–192 h and urine 0–96 h): 10.87 % of dose
- covalent binding in the plasma (albumin): presence of covalent binding between IBI351 and albumin
